Our source for the IC50 values is patent US9701680B2, “Pyrimidine and pyridine compounds and their usage” (HUTCHISON MEDIPHARMA LIMITED, priority 2013, dated 2017).

Assay [1] concerns the target Recombinant human FGFR2 (Homo sapiens, UniProt P21802). The assay can be described thus: Transcreener Kinase Assay of FGFR2. Format: biochemical.
In assay [2] the target is Recombinant human FGFR1 (Homo sapiens, UniProt P11362). Nature of the assay: Transcreener Kinase Assay of FGFR1. Format: biochemical. The essentials: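 Recombinant human FGFR1 was reacted with Poly E4Y substrate and ATP for 45 min at 28 °C, with compounds at 1 to 0.0005 µM in 1% DMSO final. Inhibition is relative to the DMSO control, with IC50 from a curve fit.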
The test system of assay [3] is RT-112. Nature of the assay: Cellular Proliferation Assay (Cell Counting Kit-8), RT-112. Format: cell-based. As to conditions: Homo sapiens; RT-112 cells, 72 hours. A digest of the protocol: (§1)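 Seeding per well: KG-1 30000, SNU-16 5000, RT-112 1000 cells. After 24 h an 8-point series (working dilutions 10 to 0.004 μM in 5% DMSO) was added for 72 h at 37 °C, 5% CO2. CCK-8 OD450 after 1 h, corrected for media background and normalised to untreated cells, gave IC50.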

Assay [4] relates to SNU-16. Nature of the assay: Cellular Proliferation Assay (Cell Counting Kit-8), SNU-16. As to conditions: Homo sapiens; SNU-16 cells, 72 hours. Format: cell-based. The essentials: as §1
Assay [5] concerns the target FGFR3 kinase (Homo sapiens, UniProt P22607). The assay can be described thus: Z-Lyte Kinase Assay of FGFR3. Format: biochemical. A digest of the protocol: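 Z-LYTE FRET assay, kinase 0.7 μg/ml with Tyr 4 peptide 4 μM (P/K solution), ATP diluted to 300 uM in 1.33× buffer; compound final 1 to 0.00046 μM, 2% DMSO.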
Assay [6] concerns KG-1. The assay can be described thus: Cellular Proliferation Assay (Cell Counting Kit-8), KG-1. Format: cell-based. As to conditions: Homo sapiens; KG-1 cells, 72 hours; read-out: KG1 IC50. A digest of the protocol:
as §1

Like-named read-outs stand apart in the source and are kept apart here.

FGFR3 kinase, sequence (P22607 23-806): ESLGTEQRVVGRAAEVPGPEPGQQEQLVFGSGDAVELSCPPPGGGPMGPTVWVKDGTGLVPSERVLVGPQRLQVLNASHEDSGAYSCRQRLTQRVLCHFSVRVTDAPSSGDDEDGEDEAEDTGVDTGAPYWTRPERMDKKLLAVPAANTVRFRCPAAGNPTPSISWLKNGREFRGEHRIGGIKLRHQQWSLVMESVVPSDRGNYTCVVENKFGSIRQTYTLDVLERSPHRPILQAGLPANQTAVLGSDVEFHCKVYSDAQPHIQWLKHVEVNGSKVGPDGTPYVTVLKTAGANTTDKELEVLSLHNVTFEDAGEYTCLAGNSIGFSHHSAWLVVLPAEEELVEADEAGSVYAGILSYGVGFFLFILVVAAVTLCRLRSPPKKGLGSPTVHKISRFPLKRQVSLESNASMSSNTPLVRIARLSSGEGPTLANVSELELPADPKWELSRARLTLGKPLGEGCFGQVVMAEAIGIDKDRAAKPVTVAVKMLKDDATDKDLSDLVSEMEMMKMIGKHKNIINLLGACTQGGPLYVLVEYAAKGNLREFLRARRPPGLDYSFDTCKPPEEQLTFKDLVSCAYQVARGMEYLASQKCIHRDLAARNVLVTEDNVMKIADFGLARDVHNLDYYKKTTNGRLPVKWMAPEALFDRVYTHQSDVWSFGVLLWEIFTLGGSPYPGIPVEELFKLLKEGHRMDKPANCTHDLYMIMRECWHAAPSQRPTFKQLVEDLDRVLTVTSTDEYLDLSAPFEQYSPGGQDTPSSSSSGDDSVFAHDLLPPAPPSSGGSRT
Recombinant human FGFR1, sequence (P11362 22-822): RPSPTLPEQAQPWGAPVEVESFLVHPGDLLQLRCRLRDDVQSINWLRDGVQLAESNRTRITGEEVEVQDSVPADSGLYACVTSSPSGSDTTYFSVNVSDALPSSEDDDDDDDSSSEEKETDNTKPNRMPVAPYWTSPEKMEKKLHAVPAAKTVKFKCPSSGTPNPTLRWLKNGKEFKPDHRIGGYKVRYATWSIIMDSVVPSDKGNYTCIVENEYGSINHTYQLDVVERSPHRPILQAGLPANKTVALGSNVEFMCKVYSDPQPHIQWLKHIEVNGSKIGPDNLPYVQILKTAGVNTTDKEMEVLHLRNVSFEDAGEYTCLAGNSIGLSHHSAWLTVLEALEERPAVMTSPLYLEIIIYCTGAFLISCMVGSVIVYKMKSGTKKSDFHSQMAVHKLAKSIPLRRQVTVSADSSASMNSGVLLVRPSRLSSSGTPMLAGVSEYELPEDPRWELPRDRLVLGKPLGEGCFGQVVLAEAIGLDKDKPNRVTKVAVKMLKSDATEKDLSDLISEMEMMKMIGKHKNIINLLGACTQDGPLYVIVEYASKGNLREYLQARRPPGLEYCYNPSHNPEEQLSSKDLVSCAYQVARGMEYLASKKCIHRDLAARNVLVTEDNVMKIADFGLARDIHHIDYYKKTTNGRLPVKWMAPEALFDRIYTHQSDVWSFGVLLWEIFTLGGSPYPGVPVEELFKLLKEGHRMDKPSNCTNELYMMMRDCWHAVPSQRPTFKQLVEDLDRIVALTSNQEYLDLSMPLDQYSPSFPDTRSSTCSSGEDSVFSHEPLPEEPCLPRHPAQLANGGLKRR
Recombinant human FGFR2, sequence (P21802 22-821): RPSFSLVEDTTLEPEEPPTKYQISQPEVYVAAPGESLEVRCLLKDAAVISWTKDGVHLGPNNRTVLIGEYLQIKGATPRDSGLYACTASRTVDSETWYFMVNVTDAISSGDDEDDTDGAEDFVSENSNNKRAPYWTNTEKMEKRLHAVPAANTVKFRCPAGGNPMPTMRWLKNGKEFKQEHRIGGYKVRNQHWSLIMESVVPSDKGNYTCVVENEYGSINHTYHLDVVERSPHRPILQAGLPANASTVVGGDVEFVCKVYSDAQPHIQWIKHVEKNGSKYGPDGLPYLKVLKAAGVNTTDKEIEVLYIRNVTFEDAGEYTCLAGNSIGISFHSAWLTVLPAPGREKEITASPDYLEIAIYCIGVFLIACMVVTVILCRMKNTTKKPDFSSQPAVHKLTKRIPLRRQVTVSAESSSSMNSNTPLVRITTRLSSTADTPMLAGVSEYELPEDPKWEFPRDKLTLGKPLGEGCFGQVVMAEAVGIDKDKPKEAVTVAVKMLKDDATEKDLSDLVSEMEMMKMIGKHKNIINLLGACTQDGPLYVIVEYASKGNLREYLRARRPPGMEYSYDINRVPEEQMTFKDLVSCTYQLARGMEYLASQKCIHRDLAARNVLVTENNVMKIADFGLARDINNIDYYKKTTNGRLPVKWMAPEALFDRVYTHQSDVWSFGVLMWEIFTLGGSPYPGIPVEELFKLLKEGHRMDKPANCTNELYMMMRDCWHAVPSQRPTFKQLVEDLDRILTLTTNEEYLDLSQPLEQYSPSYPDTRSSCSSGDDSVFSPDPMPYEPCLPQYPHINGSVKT

With `CNC(=O)c1cc(COc2cnc(Nc3ccc(=O)n(C4CCCC4)c3)nc2)c(F)c(OC)c1` [Compound 237], the IC50 came out at 27 nM in assay [1] (read-out: FGFR2 (FP) IC50); 66 nM in assay [2] (read-out: FGFR1 (FP) IC50); 134 nM in assay [3]; 42 nM in assay [4]; 29 nM in assay [5]; 79 nM in assay [6].
Consider `CNC(=O)c1cc(COc2cnc(Nc3ccc(-n4nccn4)cc3)nc2)c(Cl)c(OC)c1` [Compound 233], for which the IC50 in assay [1] (read-out: FGFR2 (FP) IC50) was determined as 31 nM; in assay [2] (read-out: FGFR1 (FP) IC50) it was 98 nM; in assay [3], 121 nM; in assay [4], 63 nM; in assay [5], 310 nM; in assay [6] it was 58 nM.
For the molecule `CCN(CC)CCc1cccc(Nc2ncc(OCc3cc(C(=O)NC)cc(OC)c3F)cn2)c1` [Compound 243], the IC50 turned out to be 9 nM in assay [1] (read-out: FGFR2 (FP) IC50); 20 nM in assay [2] (read-out: FGFR1 (FP) IC50); 15 nM in assay [3]; 6 nM in assay [4]; 9 nM in assay [5]; 69 nM in assay [6].
Regarding `CNC(=O)c1cc(COc2cnc(Nc3ccc(-n4cncn4)cc3)nc2)c(F)c(OC)c1` [Compound 221], the half-maximal inhibitory concentration (IC50) in assay [1] (read-out: FGFR2 (FP) IC50) worked out at 11 nM; in assay [2] (read-out: FGFR1 (FP) IC50) it was 34 nM; in assay [3], 72 nM; in assay [4], 27 nM; in assay [5] it was 37 nM; in assay [6], 35 nM.
`CNC(=O)c1cc(COc2cnc(Nc3cccc(-n4ccnn4)c3)nc2)c(Cl)c(OC)c1` [Compound 234]: the half-maximal inhibitory concentration (IC50) in assay [1] (read-out: FGFR2 (FP) IC50) worked out at 4 nM; in assay [2] (read-out: FGFR1 (FP) IC50) it was 6 nM; in assay [3], 35 nM; in assay [4], 15 nM; in assay [5], 30 nM; in assay [6], 14 nM.
For the molecule `CNC(=O)c1cc(COc2cnc(Nc3ccc(N4CCN(C)CC4)c(OC)c3)nc2)c(F)c(OC)c1` [Compound 269], the IC50 is 7 nM in assay [1] (read-out: FGFR2 (FP) IC50); 10 nM in assay [2] (read-out: FGFR1 (FP) IC50); 5 nM in assay [3]; 6 nM in assay [4]; 5 nM in assay [5]; 6 nM in assay [6].
In the case of `CCN1CCN(c2ccc(Nc3ncc(OCc4cc(C(=O)NC)cc(OC)c4F)cn3)cc2OC)CC1` [Compound 283], the IC50 in assay [1] (FP) was found to be 5 nM; in assay [2] (FP) it was 12 nM; in assay [3] it was 8 nM; in assay [4], 3 nM; in assay [5] (Z-lyte), 4 nM; in assay [6] it was 8 nM.
Consider `CNC(=O)c1cc(CCc2cnc(Nc3ccc(O)cc3)nc2)c(Cl)c(OC)c1` [Compound 81], for which the IC50 in assay [1] (read-out: FGFR2 (FP) IC50) is 13 nM; in assay [2] (read-out: FGFR1 (FP) IC50), 17 nM; in assay [3], 133 nM; in assay [4], 59 nM; in assay [5] it was 26 nM; in assay [6] it was 26 nM.
Turning to `CNC(=O)c1cc(COc2cnc(Nc3ccc([C@@H]4CCCNC4)nc3)nc2)c(Cl)c(OC)c1` [Compound 244], the IC50 worked out at 10 nM in assay [1] (read-out: FGFR2 (FP) IC50); 10 nM in assay [2] (read-out: FGFR1 (FP) IC50); 585 nM in assay [3]; 115 nM in assay [4]; 13 nM in assay [5]; 362 nM in assay [6].
`CNC(=O)c1cc(CCc2cnc(Nc3ccc(N)cc3)nc2)c(Cl)c(OC)c1` [Compound 80]: the IC50 amounted to 11 nM in assay [1] (read-out: FGFR2 (FP) IC50); 10 nM in assay [2] (read-out: FGFR1 (FP) IC50); 44 nM in assay [3]; 18 nM in assay [4]; 13 nM in assay [5]; 13 nM in assay [6].
`CNC(=O)c1cc(COc2cnc(Nc3cnc(N4C[C@@H](C)N[C@@H](C)C4)c(F)c3)nc2)c(F)c(OC)c1` [Compound 277]: the IC50 in assay [1] (read-out: FGFR2 (FP) IC50) is 14 nM; in assay [2] (read-out: FGFR1 (FP) IC50), 20 nM; in assay [3] it was 109 nM; in assay [4], 36 nM; in assay [5], 18 nM; in assay [6] it was 57 nM.
For the molecule `CNC(=O)c1cc(CCc2cnc(Nc3ccc(N4CCN(C)CC4)c(OC)c3)nc2)c(Cl)c(OC)c1` [Compound 177], the 50% inhibitory concentration (IC50) amounted to 5 nM in assay [1] (read-out: FGFR2 (FP) IC50); 6 nM in assay [2] (read-out: FGFR1 (FP) IC50); 11 nM in assay [3]; 2 nM in assay [4]; 6 nM in assay [5]; 11 nM in assay [6].
On to `CCN1CCC(c2ccc(Nc3ncc(OCc4cc(C(=O)NC)cc(OC)c4F)cn3)cc2)CC1` [Compound 252], for which the IC50 in assay [1] (read-out: FGFR2 (FP) IC50) stood at 22 nM; in assay [2] (read-out: FGFR1 (FP) IC50), 21 nM; in assay [3] it was 6 nM; in assay [4], 8 nM; in assay [5], 16 nM; in assay [6], 28 nM.
Consider `CCN1CCN(c2ccc(Nc3ccc(CCc4cc(OC)cc(C(=O)NOC)c4)cn3)cc2)CC1` [Compound 73], for which the IC50 in assay [1] (read-out: FGFR2 (FP) IC50) stood at 8 nM; in assay [2] (read-out: FGFR1 (FP) IC50), 9 nM; in assay [3], 493 nM; in assay [4] it was 65 nM; in assay [5] it was 25 nM; in assay [6], 70 nM.
`C#Cc1cccc(Nc2ncc(OCc3cc(C(=O)NC)cc(OC)c3F)cn2)c1` [Compound 210]: the IC50 in assay [1] (read-out: FGFR2 (FP) IC50) was found to be 13 nM; in assay [2] (read-out: FGFR1 (FP) IC50), 24 nM; in assay [3], 305 nM; in assay [4], 115 nM; in assay [5], 177 nM; in assay [6] it was 166 nM.
For `CNC(=O)c1cc(C#Cc2cnc(Nc3ccc(N4C[C@@H](C)N[C@@H](C)C4)c(OC)c3)nc2)c(F)c(OC)c1` [Compound 306], the IC50 came to 12 nM in assay [1] (FP); 29 nM in assay [2] (FP); 16 nM in assay [3]; 23 nM in assay [4]; 26 nM in assay [5] (Z-lyte); 100 nM in assay [6].
`CNC(=O)c1cc(COc2cnc(Nc3ccnc(N4C[C@@H](C)N[C@@H](C)C4)c3)nc2)c(F)c(OC)c1` [Compound 259]: the IC50 came out at 14 nM in assay [1] (read-out: FGFR2 (FP) IC50); 24 nM in assay [2] (read-out: FGFR1 (FP) IC50); 141 nM in assay [3]; 39 nM in assay [4]; 13 nM in assay [5]; 220 nM in assay [6].
As to `CNC(=O)c1cc(COc2cnc(Nc3ccc(S(C)(=O)=O)cc3)nc2)c(F)c(OC)c1` [Compound 226], the IC50 in assay [1] (read-out: FGFR2 (FP) IC50) stood at 10 nM; in assay [2] (read-out: FGFR1 (FP) IC50), 30 nM; in assay [3], 285 nM; in assay [4] it was 32 nM; in assay [5], 27 nM; in assay [6], 35 nM.
Turning to `CCN(CC)CCNC(C)c1ccc(Nc2ncc(OCc3cc(C(=O)NC)cc(OC)c3Cl)cn2)cc1` (stereo not drawn) [Compound 295], the IC50 is 13 nM in assay [1] (FP); 13 nM in assay [2] (FP); 337 nM in assay [3]; 104 nM in assay [4]; 19 nM in assay [5] (Z-lyte); 40 nM in assay [6].
As for `CNC(=O)c1cc(COc2cnc(Nc3ccc(CCN(C)C)cc3)nc2)c(F)c(OC)c1` [Compound 225], the IC50 in assay [1] (read-out: FGFR2 (FP) IC50) was found to be 15 nM; in assay [2] (read-out: FGFR1 (FP) IC50), 26 nM; in assay [3] it was 21 nM; in assay [4] it was 14 nM; in assay [5], 11 nM; in assay [6] it was 7 nM.
Turning to `CCN1CCN(c2ccc(Nc3ncc(OCc4cc(C(=O)NC)cc(OC)c4Cl)cn3)cn2)CC1` [Compound 272], the IC50 in assay [1] (read-out: FGFR2 (FP) IC50) turned out to be 9 nM; in assay [2] (read-out: FGFR1 (FP) IC50), 10 nM; in assay [3], 31 nM; in assay [4] it was 15 nM; in assay [5], 8 nM; in assay [6] it was 18 nM.
Take `CNC(=O)c1cc(COc2cnc(Nc3ccc(OC)c(N4CCN(C)CC4)c3)nc2)c(F)c(OC)c1` [Compound 270]: the IC50 worked out at 9 nM in assay [1] (read-out: FGFR2 (FP) IC50); 18 nM in assay [2] (read-out: FGFR1 (FP) IC50); 23 nM in assay [3]; 10 nM in assay [4]; 8 nM in assay [5]; 52 nM in assay [6].
On to `CNC(=O)c1cc(COc2cnc(Nc3cnc(N4C[C@@H](C)N[C@@H](C)C4)nc3)nc2)c(Cl)c(OC)c1` [Compound 276], for which the IC50 in assay [1] (read-out: FGFR2 (FP) IC50) worked out at 23 nM; in assay [2] (read-out: FGFR1 (FP) IC50), 20 nM; in assay [3] it was 140 nM; in assay [4], 21 nM; in assay [5], 21 nM; in assay [6], 83 nM.
Take `CNC(=O)c1cc(COc2cnc(Nc3ccc(C(C)=O)cc3)nc2)c(F)c(OC)c1` [Compound 215]: the IC50 stood at 20 nM in assay [1] (read-out: FGFR2 (FP) IC50); 44 nM in assay [2] (read-out: FGFR1 (FP) IC50); 127 nM in assay [3]; 72 nM in assay [4]; 65 nM in assay [5]; 26 nM in assay [6].
As to `CNC(=O)c1cc(COc2cnc(Nc3ccc([C@H]4CCCNC4)nc3)nc2)c(Cl)c(OC)c1` [Compound 245], the 50% inhibitory concentration (IC50) in assay [1] (read-out: FGFR2 (FP) IC50) amounted to 17 nM; in assay [2] (read-out: FGFR1 (FP) IC50), 16 nM; in assay [3] it was 581 nM; in assay [4], 136 nM; in assay [5], 18 nM; in assay [6] it was 533 nM.
Regarding `CNC(=O)c1cc(CCc2cnc(Nc3ccc(N4CCN(C)CC4)c(OC)c3)nc2)c(F)c(OC)c1` [Compound 172], the IC50 in assay [1] (read-out: FGFR2 (FP) IC50) was determined as 6 nM; in assay [2] (read-out: FGFR1 (FP) IC50), 7 nM; in assay [3] it was 12 nM; in assay [4], 4 nM; in assay [5] it was 6 nM; in assay [6], 13 nM.
Turning to `CNC(=O)c1cc(CCc2cnc(Nc3ccc(NC[C@@H](C)N)cc3)nc2)c(Cl)c(OC)c1` [Compound 92], the IC50 stood at 8 nM in assay [1] (read-out: FGFR2 (FP) IC50); 8 nM in assay [2] (read-out: FGFR1 (FP) IC50); 87 nM in assay [3]; 32 nM in assay [4]; 10 nM in assay [5]; 90 nM in assay [6].
